Test results from US20110293744A1, “BENZOXAZOLE INHIBITORS OF POLY(ADP-RIBOSE)POLYMERASE” (ABBOTT LABORATORIES, priority 2009, published 2011).

Target: T1, Recombinant Human Poly(ADP-Ribose) Polymerase (PARP), PARP-1 (Homo sapiens, UniProt P09874)
T1 construct: purchased Trevigen; host or cells: E. coli
Assay: PARP Enzyme Inhibition Assay (PARP1, SPA/FlashPlate)
Assay type: biochemical
Conditions: 1 nM PARP enzyme, [3H]-NAD+, 200 nM biotinylated histone H1, 200 nM slDNA
Procedure: Nicotinamide[2,5′,8-3H]adenine dinucleotide and strepavidin SPA beads were purchased from Amersham Biosiences. Recombinant Human Poly(ADP-Ribose) Polymerase (PARP), purified from E. coli and 6-Biotin-17-NAD^+, were purchase from Trevigen. NAD^+, histone, aminobenzamide, 3-amino benzamide and Calf Thymus DNA (dcDNA) were purchased from Sigma. Stem loop oligonucleotide containing MCAT sequence was obtained from Qiagen. The oligos were dissoloved to 1 mM in annealing buffer containing 10 mM Tris HCl pH 7.5, 1 mM EDTA, and 50 mM NaCl, incubated for 5 minutes at 95° C., and annealed at 45° C. for 45 minutes. Histone H1 (95% electrophoretically pure) was purchased from Roche. Biotinylated histone H1 was prepared by treating the protein with Sulfo-NHS-LC-Biotin from Pierce. The biotinylation reaction was conducted by slowly and intermittently adding 3 equivalents of 10 mM Sulfo-NHS-LC-Biotin to 100 μM Histone H1 in phosphate-buffered saline, pH 7.5, at 4° C. with gentle vortexing over 1 minute followed by subsequent 4° C. incubation for 1 hour. Streptavidin coated (FlashPlate Plus) microplates were purchased from Perkin Elmer.
PARP1 assay was conducted in PARP assay buffer containing 50 mM Tris pH 8.0, 1 mM DTT, 4 mM MgCl2. PARP reactions contained […] [^3H]-NAD^+ (1.6 uCi/mmol), 200 nM biotinylated histone H1, 200 nM slDNA, and 1 nM PARP enzyme. Auto reactions utilizing SPA bead-based detection were carried out in 100 μL volumes in white 96 well plates. Reactions were initiated by adding 50 μl of 2×NAD^+ substrate mixture to 50 μL of 2× enzyme mixture containing PARP and DNA. These reactions were terminated by the addition of 150 μL of 1.5 mM benzamide (˜1000-fold over its IC50). 170 μL of the stopped reaction mixtures were transferred to streptavidin Flash Plates, incubated for 1 hour, and counted using a TopCount microplate scintillation counter.

T1 sequence (P09874 whole entry): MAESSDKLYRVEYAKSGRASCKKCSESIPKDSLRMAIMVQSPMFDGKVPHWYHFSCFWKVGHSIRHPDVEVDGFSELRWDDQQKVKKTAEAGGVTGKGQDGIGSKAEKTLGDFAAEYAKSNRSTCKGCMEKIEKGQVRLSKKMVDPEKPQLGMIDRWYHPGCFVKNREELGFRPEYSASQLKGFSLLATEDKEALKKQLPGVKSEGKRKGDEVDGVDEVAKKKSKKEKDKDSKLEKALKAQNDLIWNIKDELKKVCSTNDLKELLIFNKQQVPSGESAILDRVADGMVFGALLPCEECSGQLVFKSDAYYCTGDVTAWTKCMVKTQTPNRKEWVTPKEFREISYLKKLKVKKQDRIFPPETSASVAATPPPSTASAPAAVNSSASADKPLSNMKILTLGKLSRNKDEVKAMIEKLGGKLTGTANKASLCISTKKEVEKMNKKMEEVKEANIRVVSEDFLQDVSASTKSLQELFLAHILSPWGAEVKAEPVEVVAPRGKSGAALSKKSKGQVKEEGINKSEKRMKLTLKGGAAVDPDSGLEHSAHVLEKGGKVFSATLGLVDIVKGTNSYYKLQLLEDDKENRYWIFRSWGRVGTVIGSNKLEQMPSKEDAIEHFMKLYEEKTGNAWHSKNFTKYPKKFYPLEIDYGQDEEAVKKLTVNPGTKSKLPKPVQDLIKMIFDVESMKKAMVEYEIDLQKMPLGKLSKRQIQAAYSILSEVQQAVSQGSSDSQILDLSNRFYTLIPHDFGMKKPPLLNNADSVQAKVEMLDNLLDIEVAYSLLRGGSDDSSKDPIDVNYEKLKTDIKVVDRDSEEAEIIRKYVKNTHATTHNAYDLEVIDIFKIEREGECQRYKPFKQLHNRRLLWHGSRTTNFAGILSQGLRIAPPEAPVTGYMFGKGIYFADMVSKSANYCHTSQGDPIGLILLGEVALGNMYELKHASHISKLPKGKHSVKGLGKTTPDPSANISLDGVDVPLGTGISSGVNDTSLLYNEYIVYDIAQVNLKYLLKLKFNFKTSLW

Row | Ki [nM] | SMILES
1 | 142 | NC(=O)c1cccc2oc(-c3ccc(Br)cc3)nc12 [Example 1, 2-(4-bromophenyl)-1,3-benzoxazole-4-carboxamide]
2 | 9180 | NC(=O)c1cccc2oc(-c3ccc(-c4ccccc4)cc3)nc12 [Example 2, 2-(1,1′-biphenyl-4-yl)-1,3-benzoxazole-4-carboxamide]
3 | 312 | NC(=O)c1cccc2oc(-c3ccc(-c4cccnc4)cc3)nc12 [Example 3, 2-(4-pyridin-3-ylphenyl)-1,3-benzoxazole-4-carboxamide]
4 | 48 | NC(=O)c1cccc2nc(-c3ccc(Br)cc3)oc12 [Example 4, 2-(4-bromophenyl)-1,3-benzoxazole-7-carboxamide]
5 | 196 | NC(=O)c1cccc2nc(-c3ccc(-c4ccccc4)cc3)oc12 [Example 5, 2-(1,1′-biphenyl-4-yl)-1,3-benzoxazole-7-carboxamide]
6 | 841 | NC(=O)c1cccc2nc(-c3ccc(-c4ccc5c(c4)OCO5)cc3)oc12 [Example 6, 2-[4-(1,3-benzodioxol-5-yl)phenyl]-1,3-benzoxazole-7-carboxamide]
7 | 109 | NC(=O)c1cccc2nc(-c3ccc(-c4cc[nH]n4)cc3)oc12 [Example 7, 2-[4-(1H-pyrazol-3-yl)phenyl]-1,3-benzoxazole-7-carboxamide]
8 | 3250 | NC(=O)c1cccc2nc(-c3ccc(-c4cccc(N)c4)cc3)oc12 [Example 8, 2-(3′-amino-1,1′-biphenyl-4-yl)-1,3-benzoxazole-7-carboxamide]
9 | 63 | NC(=O)c1cccc2nc(-c3ccc(-c4cccnc4)cc3)oc12 [Example 9, 2-(4-pyridin-3-ylphenyl)-1,3-benzoxazole-7-carboxamide]
10 | 1620 | NC(=O)c1cccc2nc(-c3ccc(-c4ccncc4)cc3)oc12 [Example 10, 2-(4-pyridin-4-ylphenyl)-1,3-benzoxazole-7-carboxamide]
11 | 11 | NC(=O)c1cccc2nc(-c3ccc(-c4ccccn4)cc3)oc12 [Example 11, 2-(4-pyridin-2-ylphenyl)-1,3-benzoxazole-7-carboxamide]
12 | 506 | NC(=O)c1cccc2oc(-c3ccccc3)nc12 [Example 12, 2-phenyl-1,3-benzoxazole-4-carboxamide]
